From the NIST ThermoML archive (doi:10.1016/j.fluid.2018.05.028)

Assay: xn = mol fraction of the nth substance listed
Settings: 101 kPa, Liquid; for viscosity: Concentric cylinders viscometry; for speed of sound: Single path-length method; for mass density: Vibrating tube method

CCCCCCCC/C=C\CCCCCCCC(=O)OCC [ethyl (Z)-9-octadeceneoate] + CCCO
Settings | mass density [kg/m3] | speed of sound [m/s] | viscosity [mPa·s]
293.15 K, x2 = 0 | 868.91 | 1394.2 | 6.413
293.15 K, x2 = 0.1 | 867.29 | 1389.8 | 6.028
293.15 K, x2 = 0.2 | 865.42 | 1384.1 | 5.695
293.15 K, x2 = 0.3 | 863.2 | 1377.6 | 5.368
293.15 K, x2 = 0.4 | 860.5 | 1370 | 5.016
293.15 K, x2 = 0.5 | 857.13 | 1360.7 | 4.643
293.15 K, x2 = 0.6 | 852.82 | 1349.2 | 4.238
293.15 K, x2 = 0.7 | 846.96 | 1333.8 | 3.8
293.15 K, x2 = 0.8 | 838.72 | 1312.4 | 3.299
293.15 K, x2 = 0.9 | 826.05 | 1279 | 2.748
298.15 K, x2 = 0 | 865.27 | 1376.2 | 5.653
298.15 K, x2 = 0.1 | 863.62 | 1371.8 | 5.318
298.15 K, x2 = 0.2 | 861.71 | 1366.1 | 5.028
298.15 K, x2 = 0.3 | 859.46 | 1359.7 | 4.736
298.15 K, x2 = 0.4 | 856.73 | 1352 | 4.427
298.15 K, x2 = 0.5 | 853.33 | 1342.7 | 4.102
298.15 K, x2 = 0.6 | 848.98 | 1331.2 | 3.742
298.15 K, x2 = 0.7 | 843.08 | 1315.9 | 3.357
298.15 K, x2 = 0.8 | 834.8 | 1294.6 | 2.93
298.15 K, x2 = 0.9 | 822.08 | 1261.3 | 2.455
303.15 K, x2 = 0 | 861.63 | 1358.4 | 4.986
303.15 K, x2 = 0.1 | 859.95 | 1353.9 | 4.693
303.15 K, x2 = 0.2 | 858.01 | 1348.3 | 4.435
303.15 K, x2 = 0.3 | 855.72 | 1341.8 | 4.183
303.15 K, x2 = 0.4 | 852.96 | 1334.2 | 3.915
303.15 K, x2 = 0.5 | 849.52 | 1324.8 | 3.629
303.15 K, x2 = 0.6 | 845.14 | 1313.4 | 3.312
303.15 K, x2 = 0.7 | 839.19 | 1298.1 | 2.98
303.15 K, x2 = 0.8 | 830.87 | 1276.9 | 2.603
303.15 K, x2 = 0.9 | 818.09 | 1243.8 | 2.186
308.15 K, x2 = 0 | 858.01 | 1340.8 | 4.424
308.15 K, x2 = 0.1 | 856.28 | 1336.3 | 4.167
308.15 K, x2 = 0.2 | 854.3 | 1330.6 | 3.94
308.15 K, x2 = 0.3 | 851.98 | 1324.2 | 3.719
308.15 K, x2 = 0.4 | 849.18 | 1316.5 | 3.482
308.15 K, x2 = 0.5 | 845.71 | 1307.2 | 3.23
308.15 K, x2 = 0.6 | 841.28 | 1295.7 | 2.956
308.15 K, x2 = 0.7 | 835.29 | 1280.4 | 2.657
308.15 K, x2 = 0.8 | 826.92 | 1259.4 | 2.324
308.15 K, x2 = 0.9 | 814.08 | 1226.5 | 1.955
313.15 K, x2 = 0 | 854.39 | 1323.3 | 3.919
313.15 K, x2 = 0.1 | 852.62 | 1318.8 | 3.697
313.15 K, x2 = 0.2 | 850.61 | 1313.1 | 3.497
313.15 K, x2 = 0.3 | 848.24 | 1306.6 | 3.305
313.15 K, x2 = 0.4 | 845.4 | 1299 | 3.1
313.15 K, x2 = 0.5 | 841.89 | 1289.6 | 2.882
313.15 K, x2 = 0.6 | 837.41 | 1278.2 | 2.645
313.15 K, x2 = 0.7 | 831.37 | 1262.9 | 2.384
313.15 K, x2 = 0.8 | 822.94 | 1241.9 | 2.09
313.15 K, x2 = 0.9 | 810.04 | 1209.2 | 1.76
318.15 K, x2 = 0 | 850.78 | 1306 | 3.554
318.15 K, x2 = 0.1 | 848.97 | 1301.4 | 3.354
318.15 K, x2 = 0.2 | 846.91 | 1295.7 | 3.171
318.15 K, x2 = 0.3 | 844.5 | 1289.2 | 2.996
318.15 K, x2 = 0.4 | 841.62 | 1281.6 | 2.808
318.15 K, x2 = 0.5 | 838.06 | 1272.1 | 2.606
318.15 K, x2 = 0.6 | 833.53 | 1260.7 | 2.388
318.15 K, x2 = 0.7 | 827.44 | 1245.5 | 2.147
318.15 K, x2 = 0.8 | 818.94 | 1224.5 | 1.882
318.15 K, x2 = 0.9 | 805.97 | 1191.9 | 1.584
323.15 K, x2 = 0 | 847.17 | 1288.9 | 3.214
323.15 K, x2 = 0.1 | 845.32 | 1284.2 | 3.036
323.15 K, x2 = 0.2 | 843.22 | 1278.4 | 2.871
323.15 K, x2 = 0.3 | 840.76 | 1272 | 2.712
323.15 K, x2 = 0.4 | 837.83 | 1264.2 | 2.542
323.15 K, x2 = 0.5 | 834.21 | 1254.8 | 2.36
323.15 K, x2 = 0.6 | 829.63 | 1243.3 | 2.163
323.15 K, x2 = 0.7 | 823.48 | 1228.1 | 1.945
323.15 K, x2 = 0.8 | 814.91 | 1207.2 | 1.704
323.15 K, x2 = 0.9 | 801.87 | 1174.8 | 1.433
328.15 K, x2 = 0 | 843.58 | 1271.9 | 2.921
328.15 K, x2 = 0.1 | 841.67 | 1267.1 | 2.762
328.15 K, x2 = 0.2 | 839.52 | 1261.3 | 2.612
328.15 K, x2 = 0.3 | 837.01 | 1254.8 | 2.467
328.15 K, x2 = 0.4 | 834.04 | 1247.1 | 2.312
328.15 K, x2 = 0.5 | 830.37 | 1237.6 | 2.146
328.15 K, x2 = 0.6 | 825.72 | 1226.1 | 1.969
328.15 K, x2 = 0.7 | 819.5 | 1210.8 | 1.768
328.15 K, x2 = 0.8 | 810.86 | 1190 | 1.55
328.15 K, x2 = 0.9 | 797.72 | 1157.7 | 1.301
333.15 K, x2 = 0 | 839.98 | 1255.2 | 2.643
333.15 K, x2 = 0.1 | 838.03 | 1250.2 | 2.502
333.15 K, x2 = 0.2 | 835.83 | 1244.3 | 2.366
333.15 K, x2 = 0.3 | 833.26 | 1237.8 | 2.236
333.15 K, x2 = 0.4 | 830.24 | 1230 | 2.098
333.15 K, x2 = 0.5 | 826.5 | 1220.5 | 1.948
333.15 K, x2 = 0.6 | 821.79 | 1208.9 | 1.792
333.15 K, x2 = 0.7 | 815.49 | 1193.6 | 1.611
333.15 K, x2 = 0.8 | 806.76 | 1172.8 | 1.413
333.15 K, x2 = 0.9 | 793.52 | 1140.6 | 1.185
338.15 K, x2 = 0 | 836.39 | 1238.6 | 2.448
338.15 K, x2 = 0.1 | 834.39 | 1233.4 | 2.317
338.15 K, x2 = 0.2 | 832.14 | 1227.5 | 2.191
338.15 K, x2 = 0.3 | 829.51 | 1220.9 | 2.069
338.15 K, x2 = 0.4 | 826.42 | 1213 | 1.938
338.15 K, x2 = 0.5 | 822.62 | 1203.5 | 1.796
338.15 K, x2 = 0.6 | 817.84 | 1191.8 | 1.649
338.15 K, x2 = 0.7 | 811.45 | 1176.5 | 1.477
338.15 K, x2 = 0.8 | 802.63 | 1155.6 | 1.294
338.15 K, x2 = 0.9 | 789.27 | 1123.5 | 1.08
343.15 K, x2 = 0 | 832.81 | 1222.5 | 2.254
343.15 K, x2 = 0.1 | 830.76 | 1216.9 | 2.135
343.15 K, x2 = 0.2 | 828.45 | 1210.9 | 2.018
343.15 K, x2 = 0.3 | 825.76 | 1204.2 | 1.905
343.15 K, x2 = 0.4 | 822.6 | 1196.2 | 1.784
343.15 K, x2 = 0.5 | 818.73 | 1186.6 | 1.65
343.15 K, x2 = 0.6 | 813.87 | 1174.9 | 1.515
343.15 K, x2 = 0.7 | 807.39 | 1159.5 | 1.354
343.15 K, x2 = 0.8 | 798.46 | 1138.5 | 1.185
343.15 K, x2 = 0.9 | 784.97 | 1106.3 | 0.9873
